From ChEMBL document CHEMBL4673329, “Polyketides from the marine-derived fungus Aspergillus falconensis: In silico and in vitro cytotoxicity studies” (Bioorg Med Chem, 2021)
The source made the active and inactive calls. The calls are words filed in the database; no cut-off is given here.

Key:
Assay type in all cases: functional, cell-based
MDA-MB-231 [1] = assay: Inhibition of cell migration in human MDA-MB-231 at 70 uM incubated for 24 hrs by scratch wound healing assay
L5178Y = assay: Cytotoxicity against mouse L5178Y cells assessed as reduction in cell viability incubated for 24 hrs by MTT assay
MDA-MB-231 [2] = assay: Cytotoxicity against human MDA-MB-231 cells assessed as reduction in cell viability upto 100 uM incubated for 24 hrs by MTT assay; details: dose microM <=100, time 24.0 hrs

Compound	inhibition (MDA-MB-231 [1])	IC50 (L5178Y)	Activity (MDA-MB-231 [2])
COC(=O)c1cc(O)cc(OC)c1C(=O)c1c(O)cc(C)cc1O [SULOCHRIN]	Active	5.1 µM	inactive
COC(=O)c1cc(O)cc(OC)c1C(=O)c1c(O)cc(C)c(Cl)c1O			inactive
